In patent US11192891B2, “Diazaspiro ROCK inhibitors” (BRISTOL-MYERS SQUIBB COMPANY, priority 2017, dated 2021):

Target: ROCK2 (Homo sapiens, UniProt O75116)
Test: ROCK kinase inhibition assay, FITC peptide substrate, LABCHIP 3000 readout
Format: biochemical
Conditions: 5 μM ATP, 1.5 μM peptide substrate
Summary of the method: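 Tested across a concentration range, with percent inhibition of kinase activity derived per concentration. Peptide phosphorylation, initiated by adding the Rho kinase variant (final DMSO <2%), was quenched with EDTA and substrate/product resolved by mobility shift.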

Chain of ROCK2 (O75116 whole entry, species assumed): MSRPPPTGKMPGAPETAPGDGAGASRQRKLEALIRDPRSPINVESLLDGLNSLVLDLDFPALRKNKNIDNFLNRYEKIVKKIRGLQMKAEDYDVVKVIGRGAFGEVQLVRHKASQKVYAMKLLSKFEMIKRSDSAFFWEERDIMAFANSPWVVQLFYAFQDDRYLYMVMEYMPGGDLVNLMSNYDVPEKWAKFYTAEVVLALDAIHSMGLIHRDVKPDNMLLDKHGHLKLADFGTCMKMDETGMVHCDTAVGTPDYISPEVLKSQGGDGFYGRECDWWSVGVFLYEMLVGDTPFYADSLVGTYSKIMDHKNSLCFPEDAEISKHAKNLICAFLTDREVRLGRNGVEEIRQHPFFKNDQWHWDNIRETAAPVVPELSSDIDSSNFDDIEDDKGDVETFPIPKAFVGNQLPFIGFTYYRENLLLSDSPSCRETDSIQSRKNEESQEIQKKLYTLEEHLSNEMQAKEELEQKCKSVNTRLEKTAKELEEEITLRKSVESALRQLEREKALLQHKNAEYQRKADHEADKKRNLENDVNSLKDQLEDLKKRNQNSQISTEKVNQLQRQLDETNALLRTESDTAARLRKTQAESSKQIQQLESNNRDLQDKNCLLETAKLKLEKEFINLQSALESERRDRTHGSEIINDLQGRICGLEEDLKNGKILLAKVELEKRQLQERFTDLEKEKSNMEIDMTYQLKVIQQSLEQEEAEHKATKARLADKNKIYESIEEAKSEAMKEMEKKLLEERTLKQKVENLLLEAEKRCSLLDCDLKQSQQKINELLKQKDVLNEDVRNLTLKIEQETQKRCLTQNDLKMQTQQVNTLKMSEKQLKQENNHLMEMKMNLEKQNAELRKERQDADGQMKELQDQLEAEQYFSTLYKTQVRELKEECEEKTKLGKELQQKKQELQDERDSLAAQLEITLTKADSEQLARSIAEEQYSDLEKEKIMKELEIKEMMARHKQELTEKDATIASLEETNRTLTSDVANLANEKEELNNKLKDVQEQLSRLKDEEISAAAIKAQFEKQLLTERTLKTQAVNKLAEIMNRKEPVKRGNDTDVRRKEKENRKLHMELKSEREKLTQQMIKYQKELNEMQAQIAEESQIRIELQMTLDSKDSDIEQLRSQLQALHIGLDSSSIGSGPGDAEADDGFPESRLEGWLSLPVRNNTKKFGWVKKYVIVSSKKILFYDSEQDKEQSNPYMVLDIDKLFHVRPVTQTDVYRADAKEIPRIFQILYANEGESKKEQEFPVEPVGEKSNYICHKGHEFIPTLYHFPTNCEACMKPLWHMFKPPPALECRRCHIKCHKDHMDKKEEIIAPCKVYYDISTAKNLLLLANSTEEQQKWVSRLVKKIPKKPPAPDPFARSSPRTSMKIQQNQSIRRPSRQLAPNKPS

| Structure (SMILES) | IC50 |
| --- | --- |
| COc1cc(N2CCC3(CCN(S(=O)(=O)c4ccc5[nH]c(=O)[nH]c(=O)c5c4)CC3)C2=O)ccc1-c1cn[nH]c1 [Example 209, 6-({2-[3-methoxy-4-(1H-pyrazol-4-yl)phenyl]-1-oxo-2,8-diazaspiro[4.5]decan-8-yl}sulfonyl)-1,2,3,4-tetrahydroquinazoline-2,4-dione] | 410 nM |
| COc1cc(N2CCC3(CCN(S(=O)(=O)c4ccc5c(c4)C(=O)NC5=O)CC3)C2=O)ccc1-c1cn[nH]c1 [Example 210, 5-({2-[3-methoxy-4-(1H-pyrazol-4-yl)phenyl]-1-oxo-2,8-diazaspiro[4.5]decan-8-yl}sulfonyl)-2,3-dihydro-1H-isoindole-1,3-dione] | 2310 nM |
| COc1cc(N2CCC3(CCN(S(=O)(=O)c4ccc5ncsc5c4)CC3)C2=O)ccc1-c1cn[nH]c1 [Example 211, 8-(1,3-benzothiazole-6-sulfonyl)-2-[3-methoxy-4-(1H-pyrazol-4-yl)phenyl]-2,8-diazaspiro[4.5]decan-1-one] | 46 nM |
| COc1cc(N2CCC3(CCN(S(=O)(=O)c4ccc(S(N)(=O)=O)cc4)CC3)C2=O)ccc1-c1cn[nH]c1 [Example 213, 4-({2-[3-methoxy-4-(1H-pyrazol-4-yl)phenyl]-1-oxo-2,8-diazaspiro[4.5]decan-8-yl}sulfonyl)benzene-1-sulfonamide] | 456 nM |
| COc1cc(N2CCC3(CCN(C(=O)Nc4ccc(N(C)C)cc4)CC3)C2=O)ccc1-c1cn[nH]c1 [Example 215, N-[4-(dimethylamino)phenyl]-2-[3-methoxy-4-(1H-pyrazol-4-yl)phenyl]-1-oxo-2,8-diazaspiro[4.5]decane-8-carboxamide] | 791 nM |
| COc1cccc(NC(=O)N2CCC3(CC2)CCN(c2ccc(-c4cn[nH]c4)c(OC)c2)C3=O)c1 [Example 216, 2-[3-methoxy-4-(1H-pyrazol-4-yl)phenyl]-N-(3-methoxyphenyl)-1-oxo-2,8-diazaspiro[4.5]decane-8-carboxamide] | 2250 nM |
| COc1ccc(NC(=O)N2CCC3(CC2)CCN(c2ccc(-c4cn[nH]c4)c(OC)c2)C3=O)cc1 [Example 217, 2-[3-methoxy-4-(1H-pyrazol-4-yl)phenyl]-N-(4-methoxyphenyl)-1-oxo-2,8-diazaspiro[4.5]decane-8-carboxamide] | 2460 nM |
| COc1cc(N2CCC3(CCN(S(=O)(=O)c4ccc(S(C)(=O)=O)cc4)CC3)C2=O)ccc1-c1cn[nH]c1 [Example 218, 8-(4-methanesulfonylbenzenesulfonyl)-2-[3-methoxy-4-(1H-pyrazol-4-yl)phenyl]-2,8-diazaspiro[4.5]decan-1-one] | 843 nM |
| COc1cc(N2CCC3(CCN(C(=O)c4ccc(N5CCN(Cc6cnc7ccccc7n6)CC5)cc4)CC3)C2=O)ccc1-c1cn[nH]c1 [Example 219, 2-[3-methoxy-4-(1H-pyrazol-4-yl)phenyl]-8-(4-{4-[(quinoxalin-2-yl)methyl]piperazin-1-yl}benzoyl)-2,8-diazaspiro[4.5]decan-1-one] | 1.9 nM |
| COc1cc(N2CCC3(CCN(C(=O)c4ccc(N5CCN(Cc6ccc(-n7ccnc7)cc6)CC5)cc4)CC3)C2=O)ccc1-c1cn[nH]c1 [Example 220, 8-[4-(4-{[4-(1H-imidazol-1-yl)phenyl]methyl}piperazin-1-yl)benzoyl]-2-[3-methoxy-4-(1H-pyrazol-4-yl)phenyl]-2,8-diazaspiro[4.5]decan-1-one] | 0.3 nM |
| COc1cc(N2CCC3(CCN(C(=O)c4ccc(N5CCN(Cc6csnn6)CC5)cc4)CC3)C2=O)ccc1-c1cn[nH]c1 [Example 224, 2-[3-methoxy-4-(1H-pyrazol-4-yl)phenyl]-8-(4-{4-[(1,2,3-thiadiazol-4-yl)methyl]piperazin-1-yl}benzoyl)-2,8-diazaspiro[4.5]decan-1-one] | 1.5 nM |
| COc1cc(N2CCC3(CCN(C(=O)c4ccc(N5CCN(Cc6ccc(-c7ccccc7)cc6)CC5)cc4)CC3)C2=O)ccc1-c1cn[nH]c1 [Example 225, 8-{4-[4-({[1,1′-biphenyl]-4-yl}methyl)piperazin-1-yl]benzoyl}-2-[3-methoxy-4-(1H-pyrazol-4-yl)phenyl]-2,8-diazaspiro[4.5]decan-1-one] | 4.5 nM |
| COc1cc(N2CCC3(CCN(C(=O)c4ccc(N5CCN(C6CCCCC6)CC5)cc4)CC3)C2=O)ccc1-c1cn[nH]c1 [Example 226, 8-[4-(4-cyclohexylpiperazin-1-yl)benzoyl]-2-[3-methoxy-4-(1H-pyrazol-4-yl)phenyl]-2,8-diazaspiro[4.5]decan-1-one] | 0.7 nM |
| COc1cc(N2CCC3(CCN(C(=O)c4ccc(N5CCN(Cc6ccc(Cl)cc6)CC5)cc4)CC3)C2=O)ccc1-c1cn[nH]c1 [Example 227, 8-(4-{4-[(4-chlorophenyl)methyl]piperazin-1-yl}benzoyl)-2-[3-methoxy-4-(1H-pyrazol-4-yl)phenyl]-2,8-diazaspiro[4.5]decan-1-one] | 2.2 nM |
| COc1cc(N2CCC3(CCN(C(=O)c4ccc(N5CCN(Cc6cccn6C)CC5)cc4)CC3)C2=O)ccc1-c1cn[nH]c1 [Example 228, 2-[3-methoxy-4-(1H-pyrazol-4-yl)phenyl]-8-(4-{4-[(1-methyl-1H-pyrrol-2-yl)methyl]piperazin-1-yl}benzoyl)-2,8-diazaspiro[4.5]decan-1-one] | 0.9 nM |
| COc1cc(N2CCC3(CCN(C(=O)c4ccc(N5CCN(CC6CCCC6)CC5)cc4)CC3)C2=O)ccc1-c1cn[nH]c1 [Example 230, 8-{4-[4-(cyclopentylmethyl)piperazin-1-yl]benzoyl}-2-[3-methoxy-4-(1H-pyrazol-4-yl)phenyl]-2,8-diazaspiro[4.5]decan-1-one] | 2.2 nM |
| COc1cc(N2CCC3(CCN(C(=O)c4ccc(N5CCN(C(C)CN(C)C)CC5)cc4)CC3)C2=O)ccc1-c1cn[nH]c1 (centres unmarked) [Example 232, 8-(4-{4-[1-(dimethylamino)propan-2-yl]piperazin-1-yl}benzoyl)-2-[3-methoxy-4-(1H-pyrazol-4-yl)phenyl]-2,8-diazaspiro[4.5]decan-1-one] | 3.1 nM |
| COc1cc(N2CCC3(CCN(C(=O)c4ccc(N5CCN(Cc6nccs6)CC5)cc4)CC3)C2=O)ccc1-c1cn[nH]c1 [Example 236, 2-[3-methoxy-4-(1H-pyrazol-4-yl)phenyl]-8-(4-{4-[(1,3-thiazol-2-yl)methyl]piperazin-1-yl}benzoyl)-2,8-diazaspiro[4.5]decan-1-one] | 2.7 nM |
| COc1cc(N2CCC3(CCN(C(=O)c4ccc(N5CCN(Cc6ccc(OCCCN(C)C)cc6)CC5)cc4)CC3)C2=O)ccc1-c1cn[nH]c1 [Example 237, 8-{4-[4-({4-[3-(dimethylamino)propoxy]phenyl}methyl)piperazin-1-yl]benzoyl}-2-[3-methoxy-4-(1H-pyrazol-4-yl)phenyl]-2,8-diazaspiro[4.5]decan-1-one] | 0.1 nM |

Further molecules by falling IC50, results first:

| IC50 | Structure (SMILES) |
| --- | --- |
| 1480 nM | COc1cc(N2CCC3(CCN(C(=O)Nc4cccnc4)CC3)C2=O)ccc1-c1cn[nH]c1 [Example 214, 2-[3-methoxy-4-(1H-pyrazol-4-yl)phenyl]-1-oxo-N-(pyridin-3-yl)-2,8-diazaspiro[4.5]decane-8-carboxamide] |
| 285 nM | COc1ccc(S(=O)(=O)N2CCC3(CCN(c4ccc(-c5cn[nH]c5)c(OC)c4)C3=O)CC2)cc1F [Example 212, 8-(3-fluoro-4-methoxybenzenesulfonyl)-2-[3-methoxy-4-(1H-pyrazol-4-yl)phenyl]-2,8-diazaspiro[4.5]decan-1-one] |
| 9.3 nM | COc1cc(N2CCC3(CCN(C(=O)c4ccc(N5CCN(CC(c6ccccc6)c6ccccc6)CC5)cc4)CC3)C2=O)ccc1-c1cn[nH]c1 [Example 222, 8-{4-[4-(2,2-diphenylethyl)piperazin-1-yl]benzoyl}-2-[3-methoxy-4-(1H-pyrazol-4-yl)phenyl]-2,8-diazaspiro[4.5]decan-1-one] |
| 4.1 nM | COc1cc(N2CCC3(CCN(C(=O)c4ccc(N5CCN(Cc6ccc(C(F)(F)F)cc6)CC5)cc4)CC3)C2=O)ccc1-c1cn[nH]c1 [Example 234, 2-[3-methoxy-4-(1H-pyrazol-4-yl)phenyl]-8-[4-(4-{[4-(trifluoromethyl)phenyl]methyl}piperazin-1-yl)benzoyl]-2,8-diazaspiro[4.5]decan-1-one] |
| 2.2 nM | COc1cc(N2CCC3(CCN(C(=O)c4ccc(N5CCN(CCC(C)(C)C)CC5)cc4)CC3)C2=O)ccc1-c1cn[nH]c1 [Example 231, 8-{4-[4-(3,3-dimethylbutyl)piperazin-1-yl]benzoyl}-2-[3-methoxy-4-(1H-pyrazol-4-yl)phenyl]-2,8-diazaspiro[4.5]decan-1-one] |
| 1.9 nM | COc1cc(N2CCC3(CCN(C(=O)c4ccc(N5CCN(Cc6nc7ccccc7s6)CC5)cc4)CC3)C2=O)ccc1-c1cn[nH]c1 [Example 229, 8-(4-{4-[(1,3-benzothiazol-2-yl)methyl]piperazin-1-yl}benzoyl)-2-[3-methoxy-4-(1H-pyrazol-4-yl)phenyl]-2,8-diazaspiro[4.5]decan-1-one] |
| 1.1 nM | COc1cc(N2CCC3(CCN(C(=O)c4ccc(N5CCN(Cc6ccccc6Cl)CC5)cc4)CC3)C2=O)ccc1-c1cn[nH]c1 [Example 223, 8-(4-{4-[(2-chlorophenyl)methyl]piperazin-1-yl}benzoyl)-2-[3-methoxy-4-(1H-pyrazol-4-yl)phenyl]-2,8-diazaspiro[4.5]decan-1-one] |
| 0.4 nM | COc1cc(N2CCC3(CCN(C(=O)c4ccc(N5CCN(CCOCc6ccccc6)CC5)cc4)CC3)C2=O)ccc1-c1cn[nH]c1 [Example 221, 8-(4-{4-[2-(benzyloxy)ethyl]piperazin-1-yl}benzoyl)-2-[3-methoxy-4-(1H-pyrazol-4-yl)phenyl]-2,8-diazaspiro[4.5]decan-1-one] |
| 0.2 nM | COc1cc(N2CCC3(CCN(C(=O)c4ccc(N5CCN(C(C)C)CC5)cc4)CC3)C2=O)ccc1-c1cn[nH]c1 [Example 233, 2-[3-methoxy-4-(1H-pyrazol-4-yl)phenyl]-8-{4-[4-(propan-2-yl)piperazin-1-yl]benzoyl}-2,8-diazaspiro[4.5]decan-1-one] |
| 0.2 nM | COc1cc(N2CCC3(CCN(C(=O)c4ccc(N5CCN(Cc6cccc(NS(C)(=O)=O)c6)CC5)cc4)CC3)C2=O)ccc1-c1cn[nH]c1 [Example 235, N-(3-{[4-(4-{2-[3-methoxy-4-(1H-pyrazol-4-yl)phenyl]-1-oxo-2,8-diazaspiro[4.5]decane-8-carbonyl}phenyl)piperazin-1-yl]methyl}phenyl)methanesulfonamide] |
